This is an account of results in BindingDB's records for PubMed 35440138 (University of Strathclyde, 2022).

The nature of test [1]: Inhibition of LPA-mediated ATX activation in human BJeH cells assessed as ERK phosphorylation level incubated for 30 mins by Western blot analysis. For orientation: Immunoblotting shows a protein as a band on a membrane.
Test [2] in a line: Inhibition of LPA-mediated ATX activation in human BJeH cells assessed as AKT phosphorylation level incubated for 30 mins by Western blot analysis.

In general, EC50 refers to the concentration needed to bring the measured effect to its halfway point. On to `C[C@H](CCC(=O)N1CCC(Oc2ccc([B-](F)(F)F)cc2)CC1)[C@H]1CC[C@H]2C3[C@@H](O)C[C@@H]4C[C@H](O)CC[C@]4(C)[C@H]3CC[C@]12C` (some centres not stated), for which the EC50 in test [1] and in test [2] was 100 nM each time.
